Measurements taken from patent US12624015B2, “JNK inhibitors as anticancer agents” (University of Iowa Research Foundation, priority 2019, dated 2026).
Like-named read-outs stand apart in the source and are kept apart here.

Test system: A549 adenocarcinoma cell line
Assay: In vitro antitumor screening, MTS assay
Type: cell-based
Conditions: Homo sapiens
Protocol: The synthesized derivatives were tested for their antitumor activity adopting MTS assay against A549 adenocarcinoma cell line following the reported assay method In Riss et al. Results are shown in Table 2.

[1] = A549 cell line, read-out: IC50, MTS assay against A549 cell line
[2] = A549 adenocarcinoma cell line, Table 2, read-out: IC50

SMILES | IC50 [1] | IC50 [2]
N#Cc1c(NC(=O)c2cccc(Br)c2)sc2c1CCCC2 [Compound 4] | 7600 nM | –
N#Cc1c(NCc2ccc(Br)cc2)sc2c1CCCC2 [Compound 10] | 2700 nM | 2700 nM
N#Cc1c(NC(=O)NCc2ccccc2)sc2c1CCCC2 [Compound 11] | 1600 nM | 1600 nM
